Results on 13 compounds are retold here after US20190184054A1, “COMPOSITIONS FOR THE TREATMENT OF PAIN AND/OR INFLAMMATION” (BCN PEPTIDES. S.A., priority 2008, published 2019).

Primed or numbered codes have the meaning given here. *: point of attachment. PEG1′ = PEG spacer, n=1 in acetyl-PEGn N-terminus; PEG2′ = PEG spacer, n=2 in acetyl-PEGn N-terminus; PEG3′ = PEG spacer, n=3 in acetyl-PEGn N-terminus; PEG4′ = PEG spacer, n=4 in acetyl-PEGn N-terminus; PEG5′ = PEG spacer, n=5 in acetyl-PEGn N-terminus; Palmitoyl = CCCCCCCCCCCCCCCC(=O)*

This assay relates to inflammation produced by intraplantar injection of carrageenan. Briefly: carrageenan test: paw volume increase after intraplantar carrageenan, measured with a plethysmometer. The assay is classed as in vivo. An excerpt:
Carrageenan is an irritant whose administration causes a powerful inflammation four hours after administration. The inflammatory process can be easily discerned as an increase in the volume of the paw that received carrageenan, measured with a plethysmometer. […] Therefore, the peptides of this invention have anti-inflammatory activity in vivo.
For orientation: In the carrageenan paw model, swelling and tenderness develop within hours.

Setting [1] is: peptides 5 mg/kg (im), decrease in inflammation standardized to positive control diclofenac.

For the compound “Ac-SEQ ID No. 11-NH2: acetyl N-terminus, amide C-terminus; SNAP-25 residues 12 to 17 (SEQ ID No. 11) (Ac-EEMQRR-NH2; listed as Homo sapiens)”, the “ANTI-INFLAMMATORY ACTIVITY” value under setting [1] is recorded as 49%. On the same count and under the same terms, in the case of “Ac-PEG5-SEQ ID No. 11-NH2: acetyl-PEGn (n=5) N-terminus, amide C-terminus; SNAP-25 residues 12 to 17 (SEQ ID No. 11) ({Ac-PEG5′}-EEMQRR-NH2; listed as Homo sapiens)” it was 53%. Consider “Ac-SEQ ID No. 26-NH2: acetyl N-terminus, amide C-terminus; SNAP-25-derived sequence SEQ ID No. 26 (Ac-EEMQRRA-NH2; listed as Homo sapiens)”, for which the “ANTI-INFLAMMATORY ACTIVITY” value under setting [1] was determined as 14%.

Consider “Ac-PEG1-SEQ ID No. 11-NH2: acetyl-PEGn (n=1) N-terminus, amide C-terminus; SNAP-25 residues 12 to 17 (SEQ ID No. 11) ({Ac-PEG1′}-EEMQRR-NH2; listed as Homo sapiens)”, for which the “ANTI-INFLAMMATORY ACTIVITY” value under setting [1] amounted to 21%. On the same count and under the same terms, then “Palm-SEQ ID No. 11-MH2: palmitoyl N-terminus, amide C-terminus; SNAP-25 residues 12 to 17 (SEQ ID No. 11) (Palmitoyl-EEMQRR-NH2; SMILES CCCCCCCCCCCCCCCC(=O)N[C@@H](CCC(=O)O)C(=O)N[C@@H](CCC(=O)O)C(=O)N[C@@H](CCSC)C(=O)N[C@@H](CCC(N)=O)C(=O)N[C@@H](CCCNC(=N)N)C(=O)N[C@@H](CCCNC(=N)N)C(N)=O; listed as Homo sapiens)”, with 81%; and “Ac-PEG2-SEQ ID No. 11-NH2: acetyl-PEGn (n=2) N-terminus, amide C-terminus; SNAP-25 residues 12 to 17 (SEQ ID No. 11) ({Ac-PEG2′}-EEMQRR-NH2; listed as Homo sapiens)”, with 29%; and “Ac-SEQ ID No. 9-NH2: acetyl N-terminus, amide C-terminus; SNAP-25 residues 26 to 38 (SEQ ID No. 9) (Ac-LESTRRMLQLVEE-NH2; listed as Homo sapiens)”, with 98%. On the same count and under the same terms, in the case of “Ac-PEG4-SEQ ID No. 11-NH2: acetyl-PEGn (n=4) N-terminus, amide C-terminus; SNAP-25 residues 12 to 17 (SEQ ID No. 11) ({Ac-PEG4′}-EEMQRR-NH2; listed as Homo sapiens)” it was 23%; in that of “Palm-SEQ ID No. 9-NH2: palmitoyl N-terminus, amide C-terminus; SNAP-25 residues 26 to 38 (SEQ ID No. 9) (Palmitoyl-LESTRRMLQLVEE-NH2; SMILES CCCCCCCCCCCCCCCC(=O)N[C@@H](CC(C)C)C(=O)N[C@@H](CCC(=O)O)C(=O)N[C@@H](CO)C(=O)N[C@H](C(=O)N[C@@H](CCCNC(=N)N)C(=O)N[C@@H](CCCNC(=N)N)C(=O)N[C@@H](CCSC)C(=O)N[C@@H](CC(C)C)C(=O)N[C@@H](CCC(N)=O)C(=O)N[C@@H](CC(C)C)C(=O)N[C@H](C(=O)N[C@@H](CCC(=O)O)C(=O)N[C@@H](CCC(=O)O)C(N)=O)C(C)C)[C@@H](C)O; listed as Homo sapiens)”, 77%. As to “Ac-PEG3-SEQ ID No. 11-NH2: acetyl-PEGn (n=3) N-terminus, amide C-terminus; SNAP-25 residues 12 to 17 (SEQ ID No. 11) ({Ac-PEG3′}-EEMQRR-NH2; listed as Homo sapiens)”, the “ANTI-INFLAMMATORY ACTIVITY” value under setting [1] amounted to 42%. For `O=C(O)Cc1ccccc1Nc1c(Cl)cccc1Cl` [diclofenac, reference compound], the “ANTI-INFLAMMATORY ACTIVITY” value (diclofenac 10 mg/kg, positive control used as the standard) is listed as 100%. For the compound “Palm-SEQ ID No. 4-NH2: palmitoyl N-terminus, amide C-terminus; SNAP-25 residues 10 to 22 (SEQ ID No. 4) (Palmitoyl-ELEEMQRRADQLA-NH2; SMILES CCCCCCCCCCCCCCCC(=O)N[C@@H](CCC(=O)O)C(=O)N[C@@H](CC(C)C)C(=O)N[C@@H](CCC(=O)O)C(=O)N[C@@H](CCC(=O)O)C(=O)N[C@@H](CCSC)C(=O)N[C@@H](CCC(N)=O)C(=O)N[C@@H](CCCNC(=N)N)C(=O)N[C@@H](CCCNC(=N)N)C(=O)N[C@@H](C)C(=O)N[C@@H](CC(=O)O)C(=O)N[C@@H](CCC(N)=O)C(=O)N[C@@H](CC(C)C)C(=O)N[C@@H](C)C(N)=O; listed as Homo sapiens)”, the “ANTI-INFLAMMATORY ACTIVITY” value under setting [1] is 58%. With “Ac-SEQ ID No. 4-NH2: acetyl N-terminus, amide C-terminus; SNAP-25 residues 10 to 22 (SEQ ID No. 4) (Ac-ELEEMQRRADQLA-NH2; listed as Homo sapiens)”, under setting [1], the “ANTI-INFLAMMATORY ACTIVITY” value was determined as 65%.
